Data on five molecules can be found in ChEMBL document CHEMBL1134403, “Structure-based approach for the discovery of bis-benzamidines as novel inhibitors of matriptase” (J Med Chem, 2001).

One assay deals with Prothrombin (Homo sapiens, UniProt P00734). Description: compound was tested for inhibitory activity against Thrombin.
For assay [1], the target named is T1, Suppressor of tumorigenicity 14 protein (Homo sapiens, UniProt Q9Y5Y6).
T1 sequence (Q9Y5Y6 whole entry): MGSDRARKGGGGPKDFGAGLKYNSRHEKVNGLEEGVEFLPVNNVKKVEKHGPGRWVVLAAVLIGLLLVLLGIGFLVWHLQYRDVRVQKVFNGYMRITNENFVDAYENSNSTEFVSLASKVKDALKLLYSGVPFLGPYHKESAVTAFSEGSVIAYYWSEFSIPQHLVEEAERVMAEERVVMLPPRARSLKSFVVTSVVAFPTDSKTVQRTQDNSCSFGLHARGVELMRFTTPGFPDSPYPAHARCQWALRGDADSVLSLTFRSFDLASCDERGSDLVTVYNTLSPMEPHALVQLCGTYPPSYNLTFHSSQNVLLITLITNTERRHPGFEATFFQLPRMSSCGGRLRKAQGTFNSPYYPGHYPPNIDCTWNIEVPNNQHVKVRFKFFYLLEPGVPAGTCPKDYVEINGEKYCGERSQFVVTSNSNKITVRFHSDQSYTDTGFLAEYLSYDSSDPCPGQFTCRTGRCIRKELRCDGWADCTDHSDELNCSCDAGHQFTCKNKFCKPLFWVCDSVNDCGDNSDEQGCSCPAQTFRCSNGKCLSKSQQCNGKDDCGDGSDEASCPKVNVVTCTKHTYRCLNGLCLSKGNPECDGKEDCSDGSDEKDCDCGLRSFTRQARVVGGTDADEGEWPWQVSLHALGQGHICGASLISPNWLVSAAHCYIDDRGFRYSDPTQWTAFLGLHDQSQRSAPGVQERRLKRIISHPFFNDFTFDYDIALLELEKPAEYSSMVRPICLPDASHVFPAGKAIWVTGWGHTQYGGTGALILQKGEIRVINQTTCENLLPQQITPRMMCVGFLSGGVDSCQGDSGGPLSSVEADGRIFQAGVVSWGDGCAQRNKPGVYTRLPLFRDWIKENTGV
Description: compound was tested for inhibitory activity against Matriptase.

As usually defined, the Ki is the equilibrium dissociation constant of an inhibitor or competing ligand from its target.

On Prothrombin, `N=C(N)c1ccc(OCCCCCCOc2ccc(C(=N)N)cc2I)cc1` displayed a Ki of 796 nM.

`N=C(N)c1ccc(Oc2ccc(Oc3ccc(C(=N)N)cc3)cc2)cc1`: at Prothrombin, the Ki stood at 2670 nM.

`N=C(N)c1ccc(CCc2ccc(C(=N)N)cc2)cc1`: the Ki in assay [1] is above 10000 nM.

On to `N=C(N)c1ccc(OCCCOc2ccc(C(=N)N)cc2Br)c(Br)c1` [DIBROMPROPAMIDINE], for which the Ki at Prothrombin came to 946 nM.

Molecule `N=C(N)c1ccc(OCCCCCCOc2ccc(C(=N)N)cc2)cc1` [HEXAMIDINE] yielded a Ki on Prothrombin of 224 nM.
